Experimental data: patent publication US8993757B2, “N-piperidin-4-yl derivatives” (Merck Sharp & Dohme B.V., priority 2011, dated 2015)
Several values for one entry are separate records, joined by “and”; a condition that tells them apart may be missing. Equal values may be shown once.

Molecular target: T1, human FSH receptor (Homo sapiens, UniProt P23945)
T1 construct: expressed in transfected cells; host or cells: CHO cells, cotransfected with a CRE/promotor firefly luciferase reporter
T1 sequence (P23945 18-695): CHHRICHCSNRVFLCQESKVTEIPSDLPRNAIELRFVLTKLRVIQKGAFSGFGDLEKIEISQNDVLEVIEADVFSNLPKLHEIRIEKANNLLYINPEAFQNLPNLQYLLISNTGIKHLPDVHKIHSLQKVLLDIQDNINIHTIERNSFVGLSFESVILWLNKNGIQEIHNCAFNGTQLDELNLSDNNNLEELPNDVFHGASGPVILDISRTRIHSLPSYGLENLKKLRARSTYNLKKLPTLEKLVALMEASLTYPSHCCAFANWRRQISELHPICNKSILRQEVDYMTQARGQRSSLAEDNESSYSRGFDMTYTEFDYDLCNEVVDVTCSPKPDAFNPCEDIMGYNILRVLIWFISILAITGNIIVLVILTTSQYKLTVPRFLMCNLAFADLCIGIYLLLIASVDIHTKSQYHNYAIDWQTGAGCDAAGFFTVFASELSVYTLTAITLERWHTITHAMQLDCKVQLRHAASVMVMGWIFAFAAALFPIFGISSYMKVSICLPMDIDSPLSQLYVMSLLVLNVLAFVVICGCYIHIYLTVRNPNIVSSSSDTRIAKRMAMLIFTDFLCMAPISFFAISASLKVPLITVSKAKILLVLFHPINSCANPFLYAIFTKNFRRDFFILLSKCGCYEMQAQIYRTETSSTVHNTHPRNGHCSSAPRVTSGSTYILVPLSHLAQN
Test: Antagonistic activity at the human FSH receptor expressed in CHO cells (CRE-luciferase reporter)
Assay type: cell-based
Conditions: CHO cells stably transfected with human FSH receptor and CRE/firefly luciferase reporter; 4 hours incubation; read-out: pIC50 (negative logarithm of the IC50 value) (converted)
Procedure: The FSHR antagonists of the invention have pIC50 values higher than 6 in said assay. The preferred compounds of the invention have pIC50 values higher than 8.
Antagonistic activity of the compounds at the human FSH receptor was determined in Chinese Hamster Ovary (CHO) cells stably transfected with the human FSH receptor and cotransfected with a cAMP responsive element (CRE)/promotor directing the expression of a firefly luciferase reporter gene. […] The cells (7,500 cells/well of a 384 well plate) were incubated in Dulbecco′ minimal essential F12 modified medium (Invitrogen), supplemented with 1 μg/ml bovine insulin, 5 μg/ml human apo-transferrin, 100 U/ml penicillin G and 100 μg/ml streptomycin with the test compounds (concentration between 0.316 nM and 10.0 μM) in duplicate together with […] (which, at this concentration in the absence of test compound, induces 80% of the maximal luciferase stimulation) in a humidified atmosphere (95%) at 5-7% CO2 and 37° C. The final concentration of DMSO was 1%. After 4 hours of incubation, plates were allowed to adjust to room temperature for 1 hour. Then, SteadyLite (Perkin Elmer) solution was added to the wells and cells were allowed to lyse for at least 1 hour at room temperature. Subsequently, luciferase activity was measured in a luminescence counter. The signal is expressed as counts per second (cps). The IC50 (concentration of test compound causing half-maximal (50%) inhibition of the maximally attainable inhibition of the luciferase stimulation by the compound) and efficacy of the compounds were determined using the software program MathIQ (version 2.3, ID Business Solutions Limited).

SMILES | IC50
COc1cc(OCC2CC2)cc(C(=O)NCC2CCN(c3nc(-c4cccc(-c5ccn[nH]5)c4)ncc3F)CC2)c1 [Example 19C, N-((1-(2-(3-(1H-pyrazol-5-yl)phenyl)-5-fluoropyrimidin-4-yl)piperidin-4-yl)methyl)-3-(cyclopropylmethoxy)-5-methoxybenzamide] | < 10 nM
COc1cc(OCC2CC2)cc(C(=O)NCC2CCN(c3ccnc(-c4ccc5[nH]ncc5c4)n3)CC2)c1 [Example 19E, N-((1-(2-(1H-indazol-5-yl)pyrimidin-4-yl)piperidin-4-yl)methyl)-3-(cyclopropylmethoxy)-5-methoxybenzamide] | 10 to 100 nM
COC(=O)c1cnc(-c2cccc(-n3cccn3)c2)nc1N1CCC(CNC(=O)c2cc(OC)cc(OC)c2)CC1 [Example 21B, methyl 2-(3-(1H-pyrazol-1-yl)phenyl)-4-(4-((3,5-dimethoxybenzamido)methyl)piperidin-1-yl)pyrimidine-5-carboxylate] | 10 to 100 nM
COc1cc(OCCO)cc(C(=O)NCC2CCN(c3nc(-c4cccc(-c5cc[nH]n5)c4)ncc3F)CC2)c1 [Example 22, N-((1-(2-(3-(1H-pyrazol-3-yl)phenyl)-5-fluoropyrimidin-4-yl)piperidin-4-yl)methyl)-3-(2-hydroxyethoxy)-5-methoxybenzamide] | 10 to 100 nM
COc1cc(OCC2CC2)cc(C(=O)NCC2CCN(c3ncnc(-c4ccc(O)c(C#N)c4)n3)CC2)c1 [Example 34, N-((1-(4-(3-cyano-4-hydroxyphenyl)-1,3,5-triazin-2-yl)piperidin-4-yl)methyl)-3-(cyclopropylmethoxy)-5-methoxybenzamide] | 10 to 100 nM
COc1cc(OCC2CC2)cc(C(=O)NC2CC23CCN(c2ccnc(-c4cccc(-n5cccn5)c4)n2)CC3)c1 (stereo not drawn) [Example 35, N-(6-(2-(3-(1H-pyrazol-1-yl)phenyl)pyrimidin-4-yl)-6-azaspiro[2.5]octan-1-yl)-3-(cyclopropylmethoxy)-5-methoxybenzamide] | 10 to 100 nM
COc1cc(OCC2CC2)cc(C(=O)NC(C)C2CCN(c3ncnc(-c4cccc(-c5cc[nH]n5)c4)n3)CC2)c1 (stereo not drawn) [Example 37, N-(1-(1-(4-(3-(1H-pyrazol-3-yl)phenyl)-1,3,5-triazin-2-yl)piperidin-4-yl)ethyl)-3-(cyclopropylmethoxy)-5-methoxybenzamide] | < 10 nM
COc1cc(OCC2CC2)cc(C(=O)NC(C)C2CCN(c3ccnc(-c4cccc(C#N)c4)n3)CC2)c1 (stereo not drawn) [Example 38, N-(1-(1-(2-(3-cyanophenyl)pyrimidin-4-yl)piperidin-4-yl)ethyl)-3-(cyclopropylmethoxy)-5-methoxybenzamide] | < 10 nM
COc1cc(OCC2CC2)cc(C(=O)NC(C)C2CCN(c3ccnc(-c4cccc(-n5cccn5)c4)n3)CC2)c1 (stereo not drawn) [Example 39, N-(1-(1-(2-(3-(1H-pyrazol-1-yl)phenyl)pyrimidin-4-yl)piperidin-4-yl)ethyl)-3-(cyclopropylmethoxy)-5-methoxybenzamide] | < 10 nM

Further lines, results first:

IC50 | SMILES
10 to 100 nM | COCCCOc1cc(OC)cc(C(=O)NCC2CCN(c3nc(-c4cccc(-c5cc[nH]n5)c4)ncc3F)CC2)c1 [Example 23A, N-((1-(2-(3-(1H-pyrazol-3-yl)phenyl)-5-fluoropyrimidin-4-yl)piperidin-4-yl)methyl)-3-methoxy-5-(3-methoxypropoxy)benzamide]
10 to 100 nM | C#CCOc1cc(OC)cc(C(=O)NCC2CCN(c3nc(-c4cccc(-c5cc[nH]n5)c4)ncc3F)CC2)c1 [Example 23C, N-((1-(2-(3-(1H-pyrazol-3-yl)phenyl)-5-fluoropyrimidin-4-yl)piperidin-4-yl)methyl)-3-methoxy-5-(prop-2-ynoxy)benzamide]
10 to 100 nM | COc1cc(OCC2CC2)cc(C(=O)NCC2CCN(c3nc(-c4cccc(-n5ccnn5)c4)ncc3F)CC2)c1 [Example 28C, N-((1-(2-(3-(1H-1,2,3-triazol-1-yl)phenyl)-5-fluoropyrimidin-4-yl)piperidin-4-yl)methyl)-3-(cyclopropylmethoxy)-5-methoxybenzamide]
10 to 100 nM | COc1cc(OCC(F)(F)F)cc(C(=O)NCC2CCN(c3ncnc(-c4cccc(C#N)c4)n3)CC2)c1 [Example 30C, N-((1-(4-(3-cyanophenyl)-1,3,5-triazin-2-yl)piperidin-4-yl)methyl)-3-methoxy-5-(2,2,2-trifluoroethoxy)benzamide]
< 10 nM | COc1cc(OCC(F)(F)F)cc(C(=O)NCC2CCN(c3ncnc(-c4cccc(C#N)c4)n3)CC2)c1 [Example 30D, N-((1-(4-(3-cyanophenyl)-1,3,5-triazin-2-yl)piperidin-4-yl)methyl)-3-methoxy-5-(2,2,2-trifluoroethoxy)benzamide]
< 10 nM | COc1cc(OCC2CC2)cc(C(=O)NCC2CCN(c3ccnc(-c4cccc(C(=O)Nc5ccn(C)n5)c4)n3)CC2)c1 [Example 32C, 3-(cyclopropylmethoxy)-5-methoxy-N-((1-(2-(3-(1-methyl-1H-pyrazol-3-ylcarbamoyl)phenyl)pyrimidin-4-yl)piperidin-4-yl)methyl)benzamide]
10 to 100 nM | COc1cc(OCC2CC2)cc(C(=O)NCC2CCN(c3ccnc(-c4cccc(C(=O)NC(C)(C)C)c4)n3)CC2)c1 [Example 32F, N-((1-(2-(3-(tert-butylcarbamoyl)phenyl)pyrimidin-4-yl)piperidin-4-yl)methyl)-3-(cyclopropylmethoxy)-5-methoxybenzamide]
10 to 100 nM | COc1cc(OCC2CC2)cc(C(=O)NCC2CCN(c3ncnc(-c4cccc(C(=O)NCC(F)F)c4)n3)CC2)c1 [Example 32G, 3-(cyclopropylmethoxy)-N-((1-(4-(3-(2,2-difluoroethylcarbamoyl)phenyl)-1,3,5-triazin-2-yl)piperidin-4-yl)methyl)-5-methoxybenzamide]
10 to 100 nM | COc1cc(OCC2CC2)cc(C(=O)NCC2CCN(c3ncnc(-c4cccc(C(=O)NCCO)c4)n3)CC2)c1 [Example 32H, 3-(cyclopropylmethoxy)-N-((1-(4-(3-(2-hydroxyethylcarbamoyl)phenyl)-1,3,5-triazin-2-yl)piperidin-4-yl)methyl)-5-methoxybenzamide]
10 to 100 nM | COc1cc(OCC2CC2)cc(C(=O)NCC2CCN(c3ncnc(-c4cccc(C(=O)Nc5nccs5)c4)n3)CC2)c1 [Example 32I, 3-(cyclopropylmethoxy)-5-methoxy-N-((1-(4-(3-(thiazol-2-ylcarbamoyl)phenyl)-1,3,5-triazin-2-yl)piperidin-4-yl)methyl)benzamide]
10 to 100 nM and < 10 nM | COc1cc(OCC2CC2)cc(C(=O)NCC2CCN(c3ccnc(-c4cccc(-n5cc(C)cn5)c4)n3)CC2)c1 [Example 33A, 3-(cyclopropylmethoxy)-5-methoxy-N-((1-(2-(3-(4-methyl-1H-pyrazol-1-yl)phenyl)pyrimidin-4-yl)piperidin-4-yl)methyl)benzamide]
10 to 100 nM | COc1cc(OCC2CC2)cc(C(=O)NCC2CCN(c3ccnc(-c4ccc5oncc5c4)n3)CC2)c1 [Example 33B, N-((1-(2-(benzo[d]isoxazol-5-yl)pyrimidin-4-yl)piperidin-4-yl)methyl)-3-(cyclopropylmethoxy)-5-methoxybenzamide]
10 to 100 nM | COc1cc(OCC2CC2)cc(C(=O)NCC2CCN(c3ccnc(-c4ccc(F)c(C#N)c4)n3)CC2)c1 [Example 33C, N-((1-(2-(3-cyano-4-fluorophenyl)pyrimidin-4-yl)piperidin-4-yl)methyl)-3-(cyclopropylmethoxy)-5-methoxybenzamide]
10 to 100 nM | COc1cc(OCC2CC2)cc(C(=O)NCC2CCN(c3ccnc(-c4cccc(-n5ncc(C(=O)O)c5C)c4)n3)CC2)c1 [Example 33D, 1-(3-(4-(4-((3-(cyclopropylmethoxy)-5-methoxybenzamido)methyl)piperidin-1-yl)pyrimidin-2-yl)phenyl)-5-methyl-1H-pyrazole-4-carboxylic acid]
10 to 100 nM | COc1cc(OCC2CC2)cc(C(=O)NCC2CCN(c3ccnc(-c4cccc(-n5cccn5)n4)n3)CC2)c1 [Example 33E, N-((1-(2-(6-(1H-pyrazol-1-yl)pyridin-2-yl)pyrimidin-4-yl)piperidin-4-yl)methyl)-3-(cyclopropylmethoxy)-5-methoxybenzamide]
